Values joined by “and” are separate entries in the source; they are usually repeats but may differ in a detail not shown here. Equal entries are not always repeated. Where two headings read alike, the source gives them in different places.
How the values were obtained:
Format in all cases: cell-based
GPX4 = test: Western blotting, GPX4 protein expression; conditions: 15ai 0, 2, 4 and 8 μM, 24 h
Method: Cells on 6-well plates were rinsed twice with cold PBS and lysed in RIPA lysis buffer (50 mM Tris (pH 7.4), 150 mM NaCl, 1% Triton X-100, 1% deoxycholicphenyl methylsulfonyl fluoride, 5.0 mM sodium pyrophosphate, […] leupeptin, 0.1 mM phenylmethylsulfonyl fluoride, and1 mM DTT) containing a protease inhibitor (PMSF) mixture at 1:100 dilution on ice for 30 min. The insoluble components of cell lysates were removed by centrifugation (4 °C, 12000 × g, 10 min), and protein concentrations were measured using a Pierce BCA protein assay kit. Proteins were separated by sodium dodecyl sulfate-polyacrylamide gel electrophoresis (SDS-PAGE) and transferred onto polyvinylidene difluoride (PVDF) membranes. Membranes were blocked using 5% skim milk in TBST and then incubated with diluted indicated primary antibodies: anti-GPX4 (1:1000 dilution, Proteintech, Cat No: 30388-1-AP), anti-SLC7A11 (1:1000 dilution, ABclonal, Cat No: A13685), anti-GAPDH (1:1000 dilution, Wanlei, Cat No: WL01114) at 4 °C with gentle shaking overnight. After washing five times (5 min each) with TBST, membranes were incubated with the HRP conjugated goat anti rabbit IgG (H + L) (1:5000 dilution, Wanlei, Cat No: WLA023) for 1 h at rt. Immunoreactive bands were visualized using an ECL detection kit (Wanlei, Cat No: WLA006) following the manufacturer’s instruction on the ChemiDoc system (BioRad, Shanghai, China).

MDA-MB-231 cells [1] = test: Measurement of glutathione levels
Method: Cells were plated at a density of 2 × 10^5 cells/well in 6-well plates and allowed to adhere overnight. After being treated as indicated, cells were collected and prepared for measurement of total intracellular glutathione (GSH + GSSG) using the assay kit (Beyotime, S0052) according to the manufacturer’s instructions. […]

cancer cell lines = test: In vitro cancer cell assays (antiproliferation, cell line not given); conditions: improvement over vellosimine (4)
Method: (§1) All cell lines were cultured at 37 °C with 5% CO2 in a humidified incubator. HeLa cells were grown in MEM (Gibco) supplemented with 10% fetal bovine serum (FBS, Hyclone) and 1% penicillin/streptomycin (Gibco). MIA PaCa-2, MDA-MB-231, A549, MCF-7, A375 and BEAS-2B cells were grown in DMEM (Gibco) supplemented with 10% FBS and 1% penicillin/streptomycin. CT26, and HCT116 cells were grown in RPMI-1640 supplemented with 10% FBS and 1% penicillin/streptomycin. All cell lines were purchased from the National Collection of Authenticated Cell Cultures (China).
(§2) The antiproliferative activities of the prepared compounds against tested cell lines were evaluated using a standard (MTT)-based colorimetric assay. Cells were plated at a density of 3000 cells/well in 96-well plates and allowed to adhere overnight. Then cells were treated with varying concentrations of synthesized compounds for 72 h. At the end of treatment, 20 μL of thiazolyl blue tetrazolium bromide (MTT) solution (5 mg/mL) was added to each well. Cells were incubated for an additional 4 h at 37 °C and then the medium was removed and replaced with 200 μL of DMSO. The absorbance (OD490) was read on a microplate reader (SpectraMax i3x, Molecular Devices, US). In all experiments, three replicate wells were used for each drug concentration. Each assay was performed at least three times. The IC50 values were calculated by GraphPad Prism 9, which were the mean values derived from three independent experiments.

MCF-7 = test: MTT cell viability assay, MCF-7
Method: as §1, §2

Hela = test: MTT cell viability assay, Hela
Method: as §1, §2

MDA-MB-231 cells [2] = test: Measurement of lipid (BODIPY-C11) and cytosolic (DCFH-DA) ROS; conditions: 12 h; suppressed by Fer-1 (10 μM)
Method: Lipid ROS was analyzed by flow cytometry: cells were plated at a density of 2 × 10^5 cells/well in 6-well plates. After treatment as indicated, cells were stained with 5 μM BODIPY-C11 dye (diluted in serum-containing DMEM) for 30 min at 37 °C in an incubator. For cytosolic ROS, cells were stained with 10 μM DCF (diluted in serum-free DMEM). Following staining, cells were pelleted and resuspended in 1 mL of PBS. Fluorescence intensity was measured by the analytical flow cytometry (CytoFLEX, […], US). A minimum of 10,000 cells were analyzed for each condition. Data analysis was performed using the FlowJo 7.6.1 software. The starting cell population gating by Forward Scatter and Side Scatter was used to make sure doublet exclusion. Only single cell was used for analysis.

[3] = MTT cytotoxicity towards normal cells, BEAS-2B; conditions: human
Method: as §1, §2

CT26 = test: MTT cell viability assay, CT26
Method: as §1, §2

MIA PaCa-2 = test: MTT cell viability assay, MIA PaCa-2
Method: as §1, §2

For `C=C=C1CN2[C@H]3C[C@H]1[C@H](C=O)[C@@H]2Cc1c3n(S(=O)(=O)c2ccc(C)cc2)c2ccc(Cl)cc12` [Compound 15ai], the “protein level of GPX4” value (GPX4) was “did not affect the protein level of GPX4”, the “GSH levels (% of control)” value (MDA-MB-231 cells [1]; 15ai 4 μM per Fig. 4, single replicates) was 52.357 % of control and 54.35 % of control and the “GSH levels (% of control)” value (MDA-MB-231 cells [1]; (15ai 2 μM per Fig. 4), single replicates) was 80.51 % of control and 78.85 % of control. For the same compound, the “GSH levels (% of control)” value (MDA-MB-231 cells [1]; (15ai 8 μM per Fig. 4), single replicates) was 27.587 % of control and 22.5 % of control, the GSH level (% of control) at 2 µM (MDA-MB-231 cells [1]; Homo sapiens, MDA-MB-231, column 2 (15ai 2 μM per Fig. 4), single replicates) was 84.6% and the GSH level (% of control) at 4 µM (MDA-MB-231 cells [1]; Homo sapiens, MDA-MB-231, column 4 (15ai 4 μM per Fig. 4), single replicates) was 61.6%. For the same compound, the GSH level (% of control) at 8 µM (MDA-MB-231 cells [1]; Homo sapiens, MDA-MB-231, column 8 (15ai 8 μM per Fig. 4), single replicates) was 23.2%, the GSH levels (MDA-MB-231 cells [1]; result in words, 15ai 0, 2, 4 and 8 μM) was “dose-dependently decreased” and the “anticancer activity compared to vellosimine (4)” value (cancer cell lines) was “tenfold-improved”. For the same compound, the IC50 (MCF-7; Homo sapiens, MCF7, 72 h, MTT, 72 h, mean of at least three independent experiments, read-out: IC50 MCF-7) was 13.9 µM, the IC50 (MCF-7; Homo sapiens, MCF7, source data sheet, single values of three experiments, read-out: MTT IC50 MCF-7) was 16 µM and the IC50 (MCF-7; source data sheet, single values of three experiments, read-out: MTT IC50 MCF-7) was 12.8 µM and 12.9 µM. The IC50 (Hela; Homo sapiens, HeLa, 72 h, MTT, 72 h, mean of at least three independent experiments, read-out: IC50 Hela) was 2.95 µM, the IC50 (Hela; Homo sapiens, HeLa, source data sheet, single values of three experiments, read-out: MTT IC50 Hela) was 3.02 µM and the IC50 (Hela; source data sheet, single values of three experiments, read-out: MTT IC50 Hela) was 2.02 µM and 3.81 µM. The “lipid ROS and cytosolic ROS accumulation” value (MDA-MB-231 cells [2]) was “induce lipid ROS and cytosolic ROS accumulation significantly”, the IC50 at 72 h ([3]; BEAS-2B lung epithelial cells (normal cells), source data sheet, single values of three experiments) was greater than 100 µM and the CC50 at 72 h ([3]; BEAS-2B lung epithelial cells, MTT, 72 h, cytotoxicity towards normal cells, mean of at least three independent experiments) was greater than 100 µM. The IC50 (CT26; Mus musculus, CT26, 72 h, MTT, 72 h, mean of at least three independent experiments, read-out: IC50 CT26) was 5.98 µM, the IC50 (CT26; Mus musculus, CT26, source data sheet, single values of three experiments, read-out: MTT IC50 CT-26) was 7.11 µM and the IC50 (CT26; source data sheet, single values of three experiments, read-out: MTT IC50 CT-26) was 5.83 µM and 4.99 µM. For the same compound, the IC50 (MIA PaCa-2; Homo sapiens, MIA PaCa-2, 72 h, MTT, 72 h, mean of at least three independent experiments, read-out: IC50 MIA PaCa-2) was 8.32 µM, the IC50 (MIA PaCa-2; Homo sapiens, MIA PaCa-2, source data sheet, single values of three experiments, read-out: MTT IC50 MIA PaCa-2) was 7.92 µM and the IC50 (MIA PaCa-2; source data sheet, single values of three experiments, read-out: MTT IC50 MIA PaCa-2) was 10 µM and 7.05 µM.

— paper PMC10492809, “A Bischler-Napieralski and homo-Mannich sequence enables diversified syntheses of sarpagine alkaloids and analogues” (Nature Communications, 2023)
